Test results as given in patent publication US20240217936A1, “5-BENZY[…] AND PREPARATION METHOD THEREFOR AND USE THEREOF” (WEST CHINA HOSPITAL, SICHUAN UNIVERSITY, priority 2021, published 2024).
Structures can show the parent of a compound that is named as a salt.

Columns and labels:
[1] = test system: Male SD rats; assay: Sedative and hypnotic effects after oral administration (gavage, righting reflex); type: in vivo, rat; parameters: key to Onset time / Duration: —: Disappearance of righting reflex was not observed; conditions: for Onset time / Duration: gavage, 0.16 μmoL/kg; for Onset time: disappearance of righting reflex; for Duration: until recovery of righting reflex
Method: Each test drug was administered by gavage, at a dosage of 0.16 μmoL/kg for each drug. After gavage, the disappearance of the righting reflex was used as a sign of the hypnotic effect induced by the drug, and the recovery of the righting reflex was used as a sign of drug failure. The onset time and duration of the drug were observed.

[2] = Degradation of prodrug in rat plasma (release of dexmedetomidine, HPLC); type: in vitro ADME; conditions: 37° C.
Method: The test prodrug was formulated as a 1 mg/mL of physiological saline solution, and then 100 μL of the prodrug solution was added to 900 μL of rat plasma. The test solution was vortexed for 30 s before incubation at 37° C. 50 μL of drug-containing plasma was collected at 0.5 min, 1 min, 2 min, 3 min, 5 min, 10 min, 15 min, 20 min, 30 min, and 60 min, respectively, to which was immediately added 150 μL of acetonitrile to terminate the enzymatic reaction, followed by adding the solution of internal standard telmisartan in methanol (30 μL, 20 μg/mL). Then, the resultant solution was centrifuged at 20000 rpm and 4° C. for 10 min. 100 μL of the supernatant was injected for detection by HPLC, and the concentration of dexmedetomidine was determined by an internal standard method. The degradation rate of the prodrug was calculated based on the concentration of dexmedetomidine. The chromatographic conditions are: Swell XDB C18 column (150 mm×4.6 mm, 5 μm); column temperature 30° C.; using gradient elution (see Table 1), mobile phase A: methanol, mobile phase B: 0.1% trifluoroacetic acid in water, and mobile phase C: acetonitrile; detection wavelength: 220 nm; flow rate: 1.0 mL/min; injection volume: 30 μL; retention time: 4.7 minutes for dexmedetomidine and 6.7 minutes for internal standard telmisartan. The linear range of dexmedetomidine: 2.5-100 μg/mL. Instruments: Waters 2695 high-performance liquid chromatograph, Waters 2996 photodiode array detector.

[3] = test system: Male SD rats; assay: Blood pressure change after tail vein injection (mean arterial pressure); conditions: dosage 2× ED50, injection within 15 seconds, 60 min recording, rats under isoflurane
Method: Male SD rats weighing 250-300 g were randomly divided into groups, with 10 rats in each group. General anesthesia was maintained by inhaling isoflurane. By intubating via femoral artery, blood pressure was monitored using the BL-420N biological signal collection and analysis system. minutes after blood pressure stabilization, the baseline mean arterial pressure (MAP0) was measured. Subsequently, the physiological saline solution of each test drug was injected via the tail vein (the dosage of each drug was the same as that in Experiment example 2, with a unified injection […] volume of 1 mL). […] All prodrug molecules were injected within 15 seconds. After injection of each drug, the change in blood pressure was continuously recorded for 60 min. […] The difference MAPΔ+ between the baseline mean arterial pressure (MAP0) and the highest mean arterial pressure (MAPmax) during the 60 min measurement time was calculated; the difference MAPΔ− between the baseline mean arterial pressure (MAP0) and the lowest mean arterial pressure (MAPmin) during the 60 min measurement time was also obtained; both of the difference values were used to calculate the maximum increase rate of mean arterial pressure +Δ%=MAPΔ+/MAP0*100% and the maximum decrease rate of mean arterial pressure −Δ%=MAPΔ−/MAP0*100%, respectively. The maximum increase rate of mean arterial pressure +Δ% and the maximum decrease rate −Δ% reflect the degree of blood pressure change that the body experienced after administration. The larger the value, the greater the blood pressure change that the body experienced.

[4] = test system: Male SD rats; assay: Hypnotic effect after tail vein injection (loss of righting reflex); type: in vivo, rat; conditions: for ED50: Rattus norvegicus, 50% of the dose for the disappearance of righting reflex in rats, tail vein injection; for Onset time: tail vein injection of 2× ED50, loss of righting reflex; for Onset time / Duration: rats; for Duration: tail vein injection of 2× ED50, until recovery of righting reflex
Method: Male SD rats, weighing 250-300 g, were randomly divided into groups, with 10 rats in each group. […] The onset times and the duration of hypnosis were recorded.

SMILES	Onset time [1]	Duration [1]	Degradation rate of prodrug % ([2]; 0.5 min)	Degradation rate of prodrug % ([2]; 1 min)	Degradation rate of prodrug % ([2]; 2 min)	Degradation rate of prodrug % ([2]; 3 min)	Degradation rate of prodrug % ([2]; 5 min)	Degradation rate of prodrug % ([2]; 10 min)	Degradation rate of prodrug % ([2]; 15 min)	Degradation rate of prodrug % ([2]; 20 min)	Degradation rate of prodrug % ([2]; 30 min)	Degradation rate of prodrug % ([2]; 60 min)	+Δ % (The maximum increase rate of blood pressure) [3]	−Δ % (The maximum decrease rate of blood pressure) [3]	ED50 [4]	Onset time [4]	Duration [4]	hypnotic effect by oral administration ([1]; equimolar doses, oral)
Cc1cccc([C@H](C)c2cn(COC(=O)OC(C)C)cn2)c1C [Compound 7]	9 ± 4 min	22 ± 8 min																
COC(=O)OCn1cnc([C@@H](C)c2cccc(C)c2C)c1 [Compound 13]	11 ± 5 min	21 ± 9 min																
Cc1cccc([C@H](C)c2cn(COP(=O)(OC(C)(C)C)OC(C)(C)C)cn2)c1C [Compound 12, (S)-(4-(1-(2,3-dimethylphenyl)ethyl)-1H-imidazo-1-yl)methyl di-tert-butyl phosphate]	16 ± 7 min	11 ± 4 min																
Cc1cccc([C@H](C)c2cn(COP(=O)(O)O)cn2)c1C [Compound 26]			29%	31%	32%	33%	34%	35%	37%	38%	43%	56%	*15 ± 8%	36 ± 8%	0.032 mg/kg	1.7 ± 0.3 min	46 ± 5 min	
CC(=O)OC(C)n1cnc([C@@H](C)c2cccc(C)c2C)c1 (stereo partly drawn) [Compound 17-HCl]			12%	16%	19%	22%	29%	39%	48%	53%	58%	67%	*15 ± 4%	35 ± 6%	0.029 mg/kg	1.8 ± 0.7 min	42 ± 12 min	
CCC(=O)OCn1cnc([C@@H](C)c2cccc(C)c2C)c1 [Compound 10]	13 ± 6 min	15 ± 7 min																
CCOC(=O)COC(=O)OCn1cnc([C@@H](C)c2cccc(C)c2C)c1 [Compound 24-HCl]			18%	21%	24%	27%	31%	33%	36%	37%	38%	41%	*27 ± 12%		0.03 mg/kg	1.3 ± 0.4 min	47 ± 7 min	
COC(=O)COC(=O)OCn1cnc([C@@H](C)c2cccc(C)c2C)c1 [Compound 23]	28 ± 5 min	8 ± 2 min																
CCOC(=O)CCC(=O)OCn1cnc([C@@H](C)c2cccc(C)c2C)c1 [Compound 27-HCl]			52%	58%	66%		78%	86%	97%	100%			*25 ± 13%	41 ± 9%	0.019 mg/kg	1.4 ± 0.5 min	52 ± 9 min	
Cc1cccc([C@H](C)c2cn(COC(=O)OC3CC3)cn2)c1C [Compound 22-HCl]			91%	97%	100%								34 ± 7%	39 ± 6%	0.024 mg/kg	1.5 ± 0.2 min	48 ± 9 min	
COC(=O)COC(=O)OCn1cnc([C@@H](C)c2cccc(C)c2C)c1 [Compound 23-HCl]			23%				25%	27%	28%	29%	31%	34%	29 ± 7%	35 ± 8%	0.051 mg/kg	1.7 ± 0.4 min	61 ± 15 min	
CCCOC(=O)n1cnc([C@@H](C)c2cccc(C)c2C)c1 [Compound 11-HCl]			26%	57%	74%	75%	82%	88%	95%	100%			*25 ± 7%	41 ± 8%	0.026 mg/kg	2.6 ± 0.3 min	47 ± 8 min	
Cc1cccc([C@H](C)c2cn(COC(=O)OC3CCC3)cn2)c1C [Compound 14-HCl]			53%	80%	85%	98%	100%						31 ± 6%	36 ± 6%	0.031 mg/kg	3.9 ± 2.1 min	51 ± 7 min	
Cc1cccc([C@H](C)c2c[nH]cn2)c1C.Cl [Dexmedetomidine hydrochloride, reference compound]	—	—													0.018 mg/kg	1.5 ± 0.5 min	53 ± 11 min	could not produce a hypnotic effect
CC(=O)OC(C)n1cnc([C@@H](C)c2cccc(C)c2C)c1 (stereo partly drawn) [Compound 17]	23 ± 5 min	9 ± 4 min																
